Measured values taken from publication PMC6164480, “A New Synthetic Histone Deacetylase Inhibitor, MHY2256, Induces Apoptosis and Autophagy Cell Death in Endometrial Cancer Cells via p53 Acetylation” (International Journal of Molecular Sciences, 2018).
pIC50: −log10 of the molar value.

Molecular target: T1, SIRT1 (Homo sapiens, UniProt Q96EB6)
T1 sequence (Q96EB6 2-747): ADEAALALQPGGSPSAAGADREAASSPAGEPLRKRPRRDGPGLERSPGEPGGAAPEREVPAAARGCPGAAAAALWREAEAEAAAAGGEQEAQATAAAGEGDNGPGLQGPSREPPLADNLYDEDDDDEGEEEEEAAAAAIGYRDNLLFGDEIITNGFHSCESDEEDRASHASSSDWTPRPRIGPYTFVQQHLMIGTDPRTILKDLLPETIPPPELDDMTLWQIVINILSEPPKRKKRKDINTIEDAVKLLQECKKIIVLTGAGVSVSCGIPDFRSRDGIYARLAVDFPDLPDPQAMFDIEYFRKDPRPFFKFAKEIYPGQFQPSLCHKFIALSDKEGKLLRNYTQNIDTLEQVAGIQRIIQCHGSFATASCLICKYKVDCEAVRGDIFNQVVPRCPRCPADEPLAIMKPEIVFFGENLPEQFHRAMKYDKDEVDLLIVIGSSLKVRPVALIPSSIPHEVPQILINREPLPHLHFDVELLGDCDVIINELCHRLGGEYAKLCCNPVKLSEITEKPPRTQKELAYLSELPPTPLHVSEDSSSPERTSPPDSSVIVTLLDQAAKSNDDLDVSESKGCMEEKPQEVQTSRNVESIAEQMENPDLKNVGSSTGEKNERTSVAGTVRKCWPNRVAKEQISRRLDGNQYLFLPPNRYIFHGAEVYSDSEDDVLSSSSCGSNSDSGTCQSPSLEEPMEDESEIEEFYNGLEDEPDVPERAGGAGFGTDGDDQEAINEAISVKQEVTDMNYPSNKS
Assay: SensoLyte […] FRET fluorimetric SIRT1 enzyme activity assay kit
Assay type: biochemical

CC(C)(C)c1cc(C=C2C(=O)NC(=S)NC2=O)cc(C(C)(C)C)c1O [MHY2256, 5-(3,5-di-tert-butyl-4-hydroxybenzylidene)-2-thioxodihydropyrimidine-4,6(1H,5H)-dione]
pIC50: 5.72

CC(C(=O)Nc1cccc(/N=C/c2c(O)ccc3ccccc23)c1)c1ccccc1 (centres unmarked) [salermide]
pIC50: 5.32
